Experimental findings from patent US12209087B2, “AKT1 modulators” (Alterome Therapeutics, Inc., priority 2022, dated 2025) are described below.

pIC50: −log10 of the molar value.

The first assay deals with T1, full length AKT E17K (Homo sapiens, UniProt P31749, E17K).
T1 construct: host or cells: HEK-293 (ATCC CRL-1573)
T1 sequence (P31749 whole entry E17K): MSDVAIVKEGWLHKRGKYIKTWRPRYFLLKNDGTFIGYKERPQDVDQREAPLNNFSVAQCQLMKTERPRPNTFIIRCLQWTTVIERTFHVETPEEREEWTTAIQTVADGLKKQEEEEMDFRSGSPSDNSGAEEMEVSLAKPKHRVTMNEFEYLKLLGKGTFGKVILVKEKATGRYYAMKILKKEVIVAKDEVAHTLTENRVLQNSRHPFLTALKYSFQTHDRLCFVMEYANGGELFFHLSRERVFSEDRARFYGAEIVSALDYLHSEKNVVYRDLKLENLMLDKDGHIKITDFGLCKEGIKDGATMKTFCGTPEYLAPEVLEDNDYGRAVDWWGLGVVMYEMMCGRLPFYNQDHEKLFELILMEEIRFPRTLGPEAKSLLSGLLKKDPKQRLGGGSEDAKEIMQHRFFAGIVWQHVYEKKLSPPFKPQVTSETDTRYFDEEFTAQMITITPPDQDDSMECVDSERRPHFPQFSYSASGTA
Put plainly: NanoBRET Target Engagement (TE) Assay. It is filed as cell-based. As to conditions: competitive displacement of tracer in cells, read-out: AKT1 E17K IC50. In outline:
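Compound and tracer incubated 2 h before luminescence at donor 450 nm and acceptor 600 nm, with extracellular signal inhibited. EC50 by sigmoidal variable-slope regression.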
In the case of `N#Cc1nccc(N2CC3CCC(C2)N3Cc2ccc(-n3c(-c4cccnc4N)nc4ccc(-c5ccc(F)cc5)nc43)cc2)n1` [Example 448, 4-(8-(4-(2-(2-Aminopyridin-3-yl)-5-(4-fluorophenyl)-3H-imidazo[4,5-b]pyridin-3-yl)benzyl)-3,8-diazabicyclo[3.2.1]octan-3-yl)pyrimidine-2-carbonitrile], the pIC50 (as a rule, −log10 of the IC50, conventionally taken in molar units) is 7.22 to 7.82.
`[2H]c1nn(C)nc1-c1ccc2nc(-c3cccnc3N)n(-c3ccc(CN4CCC(Nc5ccnc(C#N)n5)CC4)cc3)c2n1` [Example 616, 4-((1-(4-(2-(2-Aminopyridin-3-yl)-5-(2-methyl-2H-1,2,3-triazol-4-yl-5-d)-3H-imidazo[4,5-b]pyridin-3-yl)benzyl)piperidin-4-yl)amino)pyrimidine-2-carbonitrile]: the pIC50 is above 7.82.
On to `N#Cc1nccc(NC2CCN(Cc3ccc(-n4c(-c5cccnc5N)nc5ccc(-c6ccccn6)nc54)cc3)CC2)n1` [Example 495, 4-((1-(4-(2-(2-Aminopyridin-3-yl)-5-(pyridin-2-yl)-3H-imidazo[4,5-b]pyridin-3-yl)benzyl)piperidin-4-yl)amino)pyrimidine-2-carbonitrile], for which the pIC50 is above 7.82.
The same measure, in the same setting: to `CC(C)n1cc(-c2ccc3nc(-c4cccnc4N)n(-c4ccc(CN5CCC(Nc6ccnc(C#N)n6)CC5)cc4)c3n2)nn1` [Example 611, 4-((1-(4-(2-(2-Aminopyridin-3-yl)-5-(1-isopropyl-1H-1,2,3-triazol-4-yl)-3H-imidazo[4,5-b]pyridin-3-yl)benzyl)piperidin-4-yl)amino)pyrimidine-2-carbonitrile] belongs above 7.82; to `N#Cc1nccc(NC2CCN(Cc3ccc(-n4c(-c5cccnc5N)nc5ccc(N6CCCNC(=O)C6)nc54)cc3)CC2)n1` [Example 318, 4-((1-(4-(2-(2-Aminopyridin-3-yl)-5-(3-oxo-1,4-diazepan-1-yl)-3H-imidazo[4,5-b]pyridin-3-yl)benzyl)piperidin-4-yl)amino)pyrimidine-2-carbonitrile], 7.22 to 7.82.
For the compound `N#Cc1nccc(NC2CCN(Cc3ccc(-n4c(-c5c(F)ccnc5N)nc5ccc(-c6ccc(F)cn6)nc54)cc3)CC2)n1` [Example 600, 4-((1-(4-(2-(2-Amino-4-fluoropyridin-3-yl)-5-(5-fluoropyridin-2-yl)-3H-imidazo[4,5-b]pyridin-3-yl)benzyl)piperidin-4-yl)amino)pyrimidine-2-carbonitrile], the pIC50 is 7.22 to 7.82.
The same measure, in the same setting: to `COc1cccc(-c2ccc3nc(-c4cccnc4N)n(-c4ccc(CN5CCC(Nc6ccnc(C#N)n6)CC5)cc4)c3n2)c1` [Example 395, 4-((1-(4-(2-(2-Aminopyridin-3-yl)-5-(3-methoxyphenyl)-3H-imidazo[4,5-b]pyridin-3-yl)benzyl)piperidin-4-yl)amino)pyrimidine-2-carbonitrile] belongs above 7.82; to `Cc1oncc1-c1ccc2nc(-c3cccnc3N)n(-c3ccc(CN4CCC(Nc5ccnc(C#N)n5)CC4)cc3)c2n1` [Example 463, 4-((1-(4-(2-(2-Aminopyridin-3-yl)-5-(5-methylisoxazol-4-yl)-3H-imidazo[4,5-b]pyridin-3-yl)benzyl)piperidin-4-yl)amino)pyrimidine-2-carbonitrile], above 7.82; to `CCc1ccc2nc(-c3cccnc3N)n(-c3ccc(CN4CCC(Nc5ccnc(C#N)n5)CC4)cc3)c2n1` [Example 397, 4-((1-(4-(2-(2-Aminopyridin-3-yl)-5-ethyl-3H-imidazo[4,5-b]pyridin-3-yl)benzyl)piperidin-4-yl)amino)pyrimidine-2-carbonitrile], above 7.82.
Same read-out and setting: the result for `N#Cc1nccc(NC2CCN(Cc3ccc(-n4c(-c5cccnc5N)nc5ccc(-c6cccc(N7CCCC7=O)c6)nc54)cc3)CC2)n1` [Example 468, 4-((1-(4-(2-(2-Aminopyridin-3-yl)-5-(3-(2-oxopyrrolidin-1-yl)phenyl)-3H-imidazo[4,5-b]pyridin-3-yl)benzyl)piperidin-4-yl)amino)pyrimidine-2-carbonitrile] reads above 7.82.
Consider `Cc1noc(C)c1-c1ccc2nc(-c3cccnc3N)n(-c3ccc(CN4CCC(Nc5ccnc(C#N)n5)CC4)cc3)c2n1` [Example 473, 4-((1-(4-(2-(2-Aminopyridin-3-yl)-5-(3,5-dimethylisoxazol-4-yl)-3H-imidazo[4,5-b]pyridin-3-yl)benzyl)piperidin-4-yl)amino)pyrimidine-2-carbonitrile], for which the pIC50 was above 7.82.
Still for that read-out and setting: the result for `COc1cnc(-c2ccc3nc(-c4cccnc4N)n(-c4ccc(CN5CCC(Nc6ccnc(C#N)n6)CC5)cc4)c3n2)nc1` [Example 581, 4-((1-(4-(2-(2-Aminopyridin-3-yl)-5-(5-methoxypyrimidin-2-yl)-3H-imidazo[4,5-b]pyridin-3-yl)benzyl)piperidin-4-yl)amino)pyrimidine-2-carbonitrile] reads 7.22 to 7.82; that for `COc1cc(-c2ccc3nc(-c4cccnc4N)n(-c4ccc(CN5CCC(Nc6ccnc(C#N)n6)CC5)cc4)c3n2)ccn1` [Example 511, 4-((1-(4-(2-(2-Aminopyridin-3-yl)-5-(2-methoxypyridin-4-yl)-3H-imidazo[4,5-b]pyridin-3-yl)benzyl)piperidin-4-yl)amino)pyrimidine-2-carbonitrile], above 7.82; that for `[2H]C([2H])([2H])Oc1ccc(-c2ccc3nc(-c4nccnc4N)n(-c4ccc(CN5CCC(Nc6ccnc(C#N)n6)CC5)cc4)c3n2)cn1` [Example 637, 4-((1-(4-(2-(3-aminopyrazin-2-yl)-5-(6-(methoxy-d3)pyridin-3-yl)-3H-imidazo[4,5-b]pyridin-3-yl)benzyl)piperidin-4-yl)amino)pyrimidine-2-carbonitrile], above 7.82.
`N#Cc1cc(N2CCN(Cc3ccc(-n4c(-c5cccnc5N)nc5ccc(-c6cccc(=O)[nH]6)nc54)cc3)CC2)ncn1` [Example 334, 6-(4-(4-(2-(2-Aminopyridin-3-yl)-5-(6-oxo-1,6-dihydropyridin-2-yl)-3H-imidazo[4,5-b]pyridin-3-yl)benzyl)piperazin-1-yl)pyrimidine-4-carbonitrile]: the pIC50 is 7.22 to 7.82.

Still in this assay, the particulars now being: competitive tracer displacement in living cells, read-out: AKT1 E17K IC50.
In the case of `N#Cc1cccnc1OC1CCN(Cc2ccc(-n3c(-c4cccnc4N)nc4cccnc43)cc2)CC1` [Example 6, 2-((1-(4-(2-(2-aminopyridin-3-yl)-3H-imidazo[4,5-b]pyridin-3-yl)benzyl)piperidin-4-yl)oxy)nicotinonitrile], the pIC50 was 5.00 to 6.22.
As for `N#Cc1ccnc(N2C3CCC2CN(Cc2ccc(-n4c(-c5cccnc5N)nc5ccc(-c6ccccc6)nc54)cc2)C3)n1` [Example 204, 2-(3-(4-(2-(2-Aminopyridin-3-yl)-5-phenyl-3H-imidazo[4,5-b]pyridin-3-yl)benzyl)-3,8-diazabicyclo[3.2.1]octan-8-yl)pyrimidine-4-carbonitrile], the pIC50 was 5.00 to 6.22.
As to `N#Cc1ncc(N2CCN(Cc3ccc(-n4c(-c5cccnc5N)nc5ccc(-c6ccccc6)nc54)cc3)CC2)cn1` [Example 97, 5-(4-(4-(2-(2-aminopyridin-3-yl)-5-phenyl-3H-imidazo[4,5-b]pyridin-3-yl)benzyl)piperazin-1-yl)pyrimidine-2-carbonitrile], the pIC50 was 7.22 to 7.82.
Consider `N#Cc1nccc(N2CCC3(CCN(Cc4ccc(-n5c(-c6cccnc6N)nc6ccc(-c7ccccc7)nc65)cc4)C3)C2)n1` (stereo not drawn) [Example 302, 4-(7-(4-(2-(2-Aminopyridin-3-yl)-5-phenyl-3H-imidazo[4,5-b]pyridin-3-yl)benzyl)-2,7-diazaspiro[4.4]nonan-2-yl)pyrimidine-2-carbonitrile], for which the pIC50 is above 7.82.
For `N#Cc1cc(NC2CCN(Cc3ccc(-n4c(-c5cccnc5N)nc5ccc(-c6ccccc6Cl)nc54)cc3)CC2)ncn1` [Example 307, 6-((1-(4-(2-(2-Aminopyridin-3-yl)-5-(2-chlorophenyl)-3H-imidazo[4,5-b]pyridin-3-yl)benzyl)piperidin-4-yl)amino)pyrimidine-4-carbonitrile], the pIC50 was 6.22 to 7.22.
Still for that read-out and setting: to `N#Cc1cccnc1C(=O)NCc1ccc(-n2c(-c3cccnc3N)nc3cccnc32)cc1` [Example 101, N-(4-(2-(2-Aminopyridin-3-yl)-3H-imidazo[4,5-b]pyridin-3-yl)benzyl)-3-cyanopicolinamide] belongs 5.00 to 6.22.
For the compound `N#Cc1nccc(NC2C3CCC2CN(Cc2ccc(-n4c(-c5cccnc5N)nc5ccc(-c6ccccc6)nc54)cc2)C3)n1` (stereo not drawn) [Example 201, 4-((3-(4-(2-(2-Aminopyridin-3-yl)-5-phenyl-3H-imidazo[4,5-b]pyridin-3-yl)benzyl)-3-azabicyclo[3.2.1]octan-8-yl)amino)pyrimidine-2-carbonitrile], the pIC50 was 6.22 to 7.22.
Take `N#Cc1cncc(N2CCN(Cc3ccc(-n4c(-c5cccnc5N)nc5cccnc54)cc3)CC2)c1` [Example 16, 5-(4-(4-(2-(2-Aminopyridin-3-yl)-3H-imidazo[4,5-b]pyridin-3-yl)benzyl)piperazin-1-yl)nicotinonitrile]: the pIC50 is 5.00 to 6.22.
On the same count and under the same terms, to `N#Cc1cc(N2CCN(Cc3ccc(-n4c(-c5cccnc5N)nc5ccc(-c6ccccc6)nc54)cc3)CC2)ccn1` [Example 82, 4-(4-(4-(2-(2-Aminopyridin-3-yl)-5-phenyl-3H-imidazo[4,5-b]pyridin-3-yl)benzyl)piperazin-1-yl)picolinonitrile] belongs 7.22 to 7.82; to `N#Cc1nccc(N2CCCN(Cc3ccc(-n4c(-c5cccnc5N)nc5ccc(-c6ccccc6)nc54)cc3)CC2)n1` [Example 214, 4-(4-(4-(2-(2-Aminopyridin-3-yl)-5-phenyl-3H-imidazo[4,5-b]pyridin-3-yl)benzyl)-1,4-diazepan-1-yl)pyrimidine-2-carbonitrile], 7.22 to 7.82.
In the case of `N#Cc1nc2cc(F)cc(C(=O)NCc3ccc(-n4c(-c5cccnc5N)nc5cccnc54)cc3)c2s1` [Example 173, N-(4-(2-(2-aminopyridin-3-yl)-3H-imidazo[4,5-b]pyridin-3-yl)benzyl)-2-cyano-5-fluorobenzo[d]thiazole-7-carboxamide], the pIC50 is above 7.82.
With `N#Cc1ccnc(NC2CCN(Cc3ccc(-n4c(-c5cccnc5N)nc5cccnc54)cc3)CC2)n1` [Example 77, 2-((1-(4-(2-(2-Aminopyridin-3-yl)-3H-imidazo[4,5-b]pyridin-3-yl)benzyl)piperidin-4-yl)amino)pyrimidine-4-carbonitrile], the pIC50 was 6.22 to 7.22.
